# Read-outs that look alike come from different tables or passages of the source.
# Columns and labels:
# [1] = type: in vivo, mouse; details: for exposure on oral dosing: oral dosing (data not shown)
# Microsomal clearance [2] = type: in vitro ADME; details: mouse microsomes
# Microsomal clearance [3] = type: in vitro ADME; details: human microsomes
# [4] = aqueous pH 7.4 phosphate buffer simulating thermodynamic conditions
# replicating Mtb = type: cell-based, Mycobacterium tuberculosis
# Mtb H37Rv [5] = test system: Mtb H37Rv
# Human plasma protein = Human plasma protein binding; type: in vitro ADME; details: fraction unbound
# Microsomal clearance [6] = type: in vitro ADME; details: rat microsomes
# Mtb Erdman strain = type: cell-based, Mycobacterium tuberculosis
# non-replicating Mtb = type: cell-based, Mycobacterium tuberculosis
# [7] = Mouse PK, intravenous dosing; type: in vivo; details: for CLb: total body clearance from whole blood; for half-life at 24 h: in vivo, iv, 2 mg/kg
# LogD = type: physicochemical
# Mtb H37RvMA = type: cell-based, Mycobacterium tuberculosis
# intracellular Mtb = type: cell-based, Mycobacterium tuberculosis; details: read-out: IC90 against intracellular Mtb
# Mtb H37Rv [8] = assay: microbe, parasite or virus in culture; details: Mycobacterium tuberculosis
# Mtb isolate S1125 = assay: microbe, parasite or virus in culture; type: cell-based; details: Mycobacterium tuberculosis
# physchem = details: pH 7
molecule,measurement,setting,value
"3-(1,3-bis(4-chlorophenyl)-1H-pyrazol-5-yl)-N-(methylsulfonyl)propanamide [Compound 8]",exposure on oral dosing,[1],high exposure
same,bioavailability,"[1]; oral dosing, even at high doses",> 95%
same,"Microsomal clearance % remaining, Mouse",Microsomal clearance [2],87%
same,"Microsomal clearance % remaining, Human",Microsomal clearance [3],98%
same,solubility,[4],100 µM
same,log CFU reduction,replicating Mtb,2–2.5 log CFU
same,MIC,Mtb H37Rv [5],4.7 µM
same,Human PPB fu,Human plasma protein,0.023
same,"Microsomal clearance % remaining, Rat",Microsomal clearance [6],> 99%
same,MIC against the Mtb Erdman strain,Mtb Erdman strain,9.1 µM
same,activity against non-replicating Mtb,non-replicating Mtb,not active
same,AUC0 – t,[7]; intravenous 2 mg/kg,4883 µmol·min/L
same,Vd,[7]; intravenous 2 mg/kg,1.2 L/kg
same,t½ terminal,[7]; intravenous 2 mg/kg,3.6 h
same,CLb,[7]; intravenous 2 mg/kg,2.56 mL/min/kg
same,LogD,LogD,2.0
same,MIC,Mtb H37RvMA,4 µM
same,IC90,intracellular Mtb,11 µM
"CS(=O)(=O)NC(=O)CCc1cn(-c2ccc(Br)cc2)nc1-c1ccc(Cl)cc1 [Compound 1, 3-(1-(4-bromophenyl)-3-(4-chlorophenyl)-1H-pyrazol-4-yl)-N-(methylsulfonyl)propanamide]",exposure on oral dosing,[1],high exposure
same,log CFU reduction,replicating Mtb,2–2.5 log CFU
same,activity against non-replicating Mtb,non-replicating Mtb,not active
same,half-life at 24 h,[7],120 min
same,CLb,[7]; intravenous 2 mg/kg,1.18 mL/min/kg
"CS(=O)(=O)NC(=O)CCc1cn(-c2ccc(F)cc2)nc1-c1ccc(Cl)cc1 [Compound 3, 3-(3-(4-chlorophenyl)-1-(4-fluorophenyl)-1H-pyrazol-4-yl)-N-(methylsulfonyl)propanamide]",MIC,Mtb H37Rv [8],≥ 50 µM
"CS(=O)(=O)NC(=O)CCc1cn(-c2ccc(C(F)(F)F)nc2)nc1-c1ccc(Cl)cc1 [Compound 10, 3-(3-(4-chlorophenyl)-1-(6-(trifluoromethyl)pyridin-3-yl)-1H-pyrazol-4-yl)-N-(methylsulfonyl)propanamide]",CLb,[7]; intravenous 2 mg/kg,67.4 mL/min/kg
"CS(=O)(=O)NC(=O)CCc1cn(-c2ccc(Br)cc2)nc1-c1cccc(Cl)c1 [Compound 14, 3-(1-(4-bromophenyl)-3-(3-chlorophenyl)-1H-pyrazol-4-yl)-N-(methylsulfonyl)propanamide]",MIC,Mtb H37Rv [8],2.3 µM
"CS(=O)(=O)NC(=O)CCc1cn(-c2ccc(Br)cc2)nc1-c1ccncc1 [Compound 16, 3-(1-(4-bromophenyl)-3-(pyridin-4-yl)-1H-pyrazol-4-yl)-N-(methylsulfonyl)propanamide]",MIC,Mtb isolate S1125,15 to 30 µM
same,log CFU reduction,replicating Mtb,2–2.5 log CFU
same,activity against non-replicating Mtb,non-replicating Mtb,not active
same,CLb,[7]; intravenous 2 mg/kg,> 200 mL/min/kg
"CS(=O)(=O)NC(=O)CCc1cn(-c2ccc(Br)cc2)nc1-c1cccnc1 [Compound 17, 3-(1-(4-bromophenyl)-3-(pyridin-3-yl)-1H-pyrazol-4-yl)-N-(methylsulfonyl)propanamide]",CLb,[7]; intravenous 2 mg/kg,178 mL/min/kg
"CS(=O)(=O)NC(=O)CCc1cn(-c2ccc(Br)cc2)nc1C1CCOCC1 [Compound 20, 3-(1-(4-bromophenyl)-3-(tetrahydro-2H-pyran-4-yl)-1H-pyrazol-4-yl)-N-(methylsulfonyl)propanamide]",CLb,[7]; intravenous 2 mg/kg,145 mL/min/kg
"CS(=O)(=O)NC(=O)CCc1cn(-c2ccc(Br)cc2)nc1C1CCN(C=O)CC1 [Compound 22, 3-(1-(4-bromophenyl)-3-(1-formylpiperidin-4-yl)-1H-pyrazol-4-yl)-N-(methylsulfonyl)propanamide]",MIC,Mtb H37Rv [8],≥ 50 µM
"CS(=O)(=O)NC(=O)CCc1cn(-c2ccc(Br)cc2)nc1-c1ccc([N+](=O)[O-])cc1 [Compound 23, 3-(1-(4-bromophenyl)-3-(4-nitrophenyl)-1H-pyrazol-4-yl)-N-(methylsulfonyl)propanamide]",MIC,Mtb H37Rv [8],12.5 µM
"CCS(=O)(=O)NC(=O)CCc1cn(-c2ccc(Br)cc2)nc1-c1ccc(Cl)cc1 [Compound 33, 3-(1-(4-bromophenyl)-3-(4-chlorophenyl)-1H-pyrazol-4-yl)-N-(ethylsulfonyl) propanamide]",MIC,Mtb H37Rv [8],12.5 µM
"CS(=O)(=O)NC(=O)CCc1cn(-c2ccc(Cl)cc2)nc1-c1ccncc1 [Compound 35, 3-(1-(4-chlorophenyl)-3-(pyridin-4-yl)-1H-pyrazol-4-yl)-N-(methylsulfonyl)propanamide]",MIC,Mtb H37Rv [8],6.25 µM
"CC(CC(=O)NS(C)(=O)=O)c1cn(-c2ccc(Cl)cc2)nc1-c1ccncc1 (stereo not shown) [Compound 37, 3-(1-(4-chlorophenyl)-3-(pyridin-4-yl)-1H-pyrazol-4-yl)-N-(methylsulfonyl)butanamide]",MIC,Mtb H37Rv [8],≥ 50 µM
"CS(=O)(=O)NC(=O)/C=C/c1cn(-c2ccc(Cl)cc2)nc1-c1ccncc1 [Compound 38, (E)-3-(1-(4-chlorophenyl)-3-(pyridin-4-yl)-1H-pyrazol-4-yl)-N-(methylsulfonyl)acrylamide]",CLb,[7]; intravenous 2 mg/kg,> 200 mL/min/kg
"CS(=O)(=O)NC(=O)/C=C/c1cn(-c2ccc(Br)cc2)nc1-c1ccncc1 [Compound 39, (E)-3-(1-(4-bromophenyl)-3-(pyridin-4-yl)-1H-pyrazol-4-yl)-N-(methylsulfonyl)acrylamide]",MIC,Mtb H37Rv [8],1.2 to 4.7 µM
same,solubility,physchem,185 µM
"CS(=O)(=O)NC(=O)C1CC1c1cn(-c2ccc(Cl)cc2)nc1-c1ccncc1 (stereo not shown) [Compound 40, 2-(1-(4-chlorophenyl)-3-(pyridin-4-yl)-1H-pyrazol-4-yl)-N-(methylsulfonyl)cyclopropane-1-carboxamide]",MIC,Mtb H37Rv [8],12.5 to 19 µM
same,CLb,[7]; intravenous 2 mg/kg,> 200 mL/min/kg
"CS(=O)(=O)NC(=O)C1CC1c1cn(-c2ccc(Br)cc2)nc1-c1ccncc1 (stereo not shown) [Compound 41, 2-(1-(4-bromophenyl)-3-(pyridin-4-yl)-1H-pyrazol-4-yl)-N-(methylsulfonyl)cyclopropane-1-carboxamide]",MIC,Mtb H37Rv [8],12.5 to 19 µM
"CS(=O)(=O)NC(=O)NCc1cn(-c2ccc(Cl)cc2)nc1-c1ccncc1 [Compound 43, N-(((1-(4-chlorophenyl)-3-(pyridin-4-yl)-1H-pyrazol-4-yl)methyl)carbamoyl)methanesulfonamide]",half-life at 24 h,[7],120 min
same,CLb,[7]; intravenous 2 mg/kg,> 200 mL/min/kg
"CS(=O)(=O)NC(=O)OCc1cn(-c2ccc(Cl)cc2)nc1-c1ccncc1 [Compound 45, (1-(4-chlorophenyl)-3-(pyridin-4-yl)-1H-pyrazol-4-yl)methyl (methylsulfonyl)carbamate]",MIC,Mtb H37Rv [8],12.5 µM
same,CLb,[7]; intravenous 2 mg/kg,> 200 mL/min/kg
"O=c1[nH]c(CCc2cn(-c3ccc(Br)cc3)nc2-c2ccc(Cl)cc2)no1 [Compound 47, 3-(2-(1-(4-bromophenyl)-3-(4-chlorophenyl)-1H-pyrazol-4-yl)ethyl)-1,2,4-oxadiazol-5(4H)-one]",MIC,Mtb H37Rv [8]; 336 h,≥ 50 µM
"CS(=O)(=O)NC(=O)CCc1cc(-c2ccc(Br)cc2)nn1-c1ccc(Cl)cc1 [Compound 51, 3-(3-(4-bromophenyl)-1-(4-chlorophenyl)-1H-pyrazol-5-yl)-N-(methylsulfonyl)propanamide]",exposure on oral dosing,[1],high exposure
same,CLb,[7]; intravenous 2 mg/kg,3.13 mL/min/kg
"CS(=O)(=O)NC(=O)CCc1nn(-c2ccc(Br)cc2)cc1-c1ccc(Cl)cc1 [Compound 53, 3-(1-(4-bromophenyl)-4-(4-chlorophenyl)-1H-pyrazol-3-yl)-N-(methylsulfonyl)propanamide]",MIC,Mtb H37Rv [8],≥ 50 µM
"CS(=O)(=O)NC(=O)NCc1cc(-c2ccc(Br)cc2)oc1-c1ccncc1 [Compound 58, N-(((5-(4-bromophenyl)-2-(pyridin-4-yl)furan-3-yl)methyl)carbamoyl)methanesulfonamide]",CLb,[7]; intravenous 2 mg/kg,> 200 mL/min/kg
